Read-outs that look alike come from different tables or passages of the source.
What was measured:
HCT-15 = test: SRB cytotoxicity assay, HCT-15; type: cell-based; settings: Homo sapiens, HCT-15, Colon, read-out: GI50
Procedure: (§1) Cells were treated on Days 1, 3, 5, and 7 with 5 μL of media, vehicle, or drug. Peloruside A was resuspended in 0.1% DMSO and added to wells to a final concentration of 0.01, 0.1, 1, 10 or 100 nM. Taxol® (Sigma-Aldrich) was resuspended in 0.1% ethanol and added to cells to a final concentration of 0.1, 1, 10, 100, or 1000 nM.
(§2) The amount of surviving cells was measured using the sulforhodamine B (SRB) assay as previously described (Skehan et al., New colorimetric cytotoxicity assay for anticancer-drug screening. J. Natl. Cancer Inst., 1990. 82(13): p. 1107-12). Cells were fixed on Days 5, 7, and 9 (representing 4, 6, and 8 days of exposure to drug or control, respectively) with 50% (w/v) trichloroacetic acid for 1 hour at 4° C., rinsed thoroughly with water, and dried overnight. The dried cells were stained with 4% sulforhodamine B in 1% acetic acid, rinsed thoroughly and dried overnight. The bound dye was resuspended in 10 mM Tris and the absorbance was read at 492 nm. Percent growth inhibition (GI) was calculated as follows: %GI=(1−(absorbance sample/absorbance vehicle))×100. The absorbance value for each drug concentration and control represents the average of 6 replicates. The %GI was plotted against the log[drug] to generate the growth curves. The concentration of drug required to inhibit growth by 50% (GI50) was calculated for each time point.

HCT-116 = test: SRB cytotoxicity assay, HCT-116; type: cell-based; settings: Homo sapiens, HCT-116, Colon, read-out: GI50
Procedure: as §1, §2

Capan-1 = test: SRB cytotoxicity assay, Capan-1; type: cell-based; settings: Homo sapiens, Capan-1, Pancreas, read-out: GI50
Procedure: as §1, §2

Mia PaCa-2 = test: SRB cytotoxicity assay, Mia PaCa-2; type: cell-based; settings: Homo sapiens, Mia PaCa-2, Pancreas, read-out: GI50
Procedure: as §1, §2

SK-MEL-5 = test: SRB cytotoxicity assay, SK-MEL-5; type: cell-based; settings: Homo sapiens, SK-MEL-5, Melanoma, read-out: GI50
Procedure: as §1, §2

SK-OV-3 = test: SRB cytotoxicity assay, SK-OV-3; type: cell-based; settings: Homo sapiens, SK-OV-3, Ovarian, read-out: GI50
Procedure: as §1, §2

CAKI-1 = test: SRB cytotoxicity assay, CAKI-1; type: cell-based; settings: Homo sapiens, CAK1-1, Renal, read-out: GI50
Procedure: as §1, §2

A498 = test: SRB cytotoxicity assay, A498; type: cell-based; settings: Homo sapiens, A498, Renal, read-out: GI50
Procedure: as §1, §2

PC-3 = test: SRB cytotoxicity assay, PC-3; type: cell-based; settings: Homo sapiens, PC-3, Prostate, read-out: GI50
Procedure: as §1, §2

DU-145 = test: SRB cytotoxicity assay, DU-145; type: cell-based; settings: Homo sapiens, DU-145, Prostate, read-out: GI50
Procedure: as §1, §2

BT-549 = test: SRB cytotoxicity assay, BT-549; type: cell-based; settings: Homo sapiens, BT-549, Breast, read-out: GI50
Procedure: as §1, §2

MDA-MB-231 = test: SRB cytotoxicity assay, MDA-MB-231; type: cell-based; settings: Homo sapiens, MB-MDA-231, Breast, read-out: GI50
Procedure: as §1, §2

NCI-H460 = test: SRB cytotoxicity assay, NCI-H460; type: cell-based; settings: Homo sapiens, NCl-H460, Lung, read-out: GI50
Procedure: as §1, §2

NCI-H23 = test: SRB cytotoxicity assay, NCI-H23; type: cell-based; settings: Homo sapiens, NCl-H23, Lung, read-out: GI50
Procedure: as §1, §2

NCI-H1395 = test: SRB cytotoxicity assay, NCI-H1395; type: cell-based, human; settings: NCl-H1395, Lung
Procedure: as §1, §2

NCI-H2887 = test: SRB cytotoxicity assay, NCI-H2887; type: cell-based, human; settings: NCl-H2887, Lung
Procedure: as §1, §2

Hep-G2 = test: SRB cytotoxicity assay, Hep-G2; type: cell-based; settings: Homo sapiens, Hep G2, Liver, read-out: GI50
Procedure: as §1, §2

SK-HEP-1 = test: SRB cytotoxicity assay, SK-HEP-1; type: cell-based; settings: Homo sapiens, SK-HEP-1, Liver, read-out: GI50
Procedure: as §1, §2

[1] = test system: BSC-1 (Monkey Kidney epithelial) cells; test: Immunofluorescent staining of tubulin in BSC-1 cells; type: cell-based; settings: 200 nM of Taxol® or 50 nM of Peloruside A
ptx10 cells = test: Cell Titer-Glo cell viability, Taxol-resistant ptx10 cells; settings: Homo sapiens, PTX10, 48 h, read-out: concentration to reduce cell viability to approximately 50%
Procedure: (§3) These cell lines have specific amino acid mutations in tubulin that prevent Taxol®-binding. […] Synthetic (+)-Peloruside A was used for the present example.
(§4) 1A9, ptx10 and ptx22 cells were plated in 96-well plates to approximately 50% confluency. On the next day, Taxol® or Peloruside A was added to each well and incubated for 48 hours. A final concentration of 1, 2, 3, 4, 5, 8, 10, 20, 30, 50, 100, 300, 500, or 1000 nM of Taxol® was used. A final concentration of 10, 20, 30, 40, 50 or 70 nM of Peloruside A was used. Cell viability was measured using the Cell Titer-Glo Luminescent Cell Viability Assay (Promega). FIGS. 80-82 show bar graphs of cell viability at various concentrations of Peloruside A and Taxol®.

ptx22 cells = test: Cell Titer-Glo cell viability, Taxol-resistant ptx22 cells; settings: Homo sapiens, 48 h, read-out: concentration to reduce cell viability to approximately 50%
Procedure: as §3, §4

For `CC(=O)O[C@H]1C(=O)[C@@]2(C)[C@H]([C@H](OC(=O)c3ccccc3)[C@]3(O)C[C@H](OC(=O)[C@H](O)[C@@H](NC(=O)c4ccccc4)c4ccccc4)C(C)=C1C3(C)C)[C@]1(OC(C)=O)CO[C@@H]1C[C@@H]2O` [Paclitaxel, paclitaxel, reference compound], which GI50 (HCT-15; 96 h, 4 Days) is on record?
Its GI50 is 49.1 nM.

What about the GI50 (HCT-15; 144 h, 6 Days) of the same compound?
Its GI50 is 24 nM.

And the GI50 (HCT-15; 192 h, 8 Days)?
The GI50 was 26.7 nM.

And the GI50 (HCT-116; 96 h, 4 Days)?
The GI50 was 1 nM.

What about the GI50 (HCT-116; 144 h, 6 Days) of the same compound?
Its GI50 is 0.58 nM.

What about the GI50 (HCT-116; 192 h, 8 Days) of the same compound?
The GI50 was 0.3 nM.

And the GI50 (Capan-1; 96 h, 4 Days)?
Its GI50 is 5.68 nM.

And the GI50 (Capan-1; 144 h, 6 Days)?
The GI50 was 0.91 nM.

What about the GI50 (Capan-1; 192 h, 8 Days) of the same compound?
The GI50 was 1.43 nM.

What about the GI50 (Mia PaCa-2; 96 h, 4 Days) of the same compound?
The GI50 was 0.73 nM.

And the GI50 (Mia PaCa-2; 144 h, 6 Days)?
The GI50 was 0.53 nM.

And the GI50 (Mia PaCa-2; 192 h, 8 Days)?
The GI50 was 0.27 nM.

And the GI50 (SK-MEL-5; 96 h, 4 Days)?
The GI50 was 0.82 nM.

And the GI50 (SK-MEL-5; 144 h, 6 Days)?
The GI50 was 1 nM.

And the GI50 (SK-MEL-5; 192 h, 8 Days)?
Its GI50 is 0.27 nM.

What about the GI50 (SK-OV-3; 144 h, 6 Days) of the same compound?
The GI50 was 2.21 nM.

And the GI50 (SK-OV-3; 192 h, 8 Days)?
The GI50 was 1.07 nM.

And the GI50 (CAKI-1; CAKI-1, 96 h, 4 Days)?
Its GI50 is 4.52 nM.

What about the GI50 (CAKI-1; CAKI-1, 144 h, 6 Days) of the same compound?
Its GI50 is 1.21 nM.

And the GI50 (CAKI-1; CAKI-1, 192 h, 8 Days)?
Its GI50 is 1.17 nM.

What about the GI50 (A498; 96 h, 4 Days) of the same compound?
The GI50 was 46.1 nM.

What about the GI50 (A498; 144 h, 6 Days) of the same compound?
Its GI50 is 9.75 nM.

What about the GI50 (A498; 192 h, 8 Days) of the same compound?
Its GI50 is 7.57 nM.

And the GI50 (PC-3; 96 h, 4 Days)?
Its GI50 is 0.78 nM.

And the GI50 (PC-3; 144 h, 6 Days)?
The GI50 was 0.47 nM.

And the GI50 (PC-3; 192 h, 8 Days)?
Its GI50 is 0.27 nM.

And the GI50 (DU-145; 96 h, 4 Days)?
Its GI50 is 0.54 nM.

And the GI50 (DU-145; 144 h, 6 Days)?
The GI50 was 0.53 nM.

And the GI50 (DU-145; 192 h, 8 Days)?
The GI50 was 0.49 nM.

What about the GI50 (BT-549; 96 h, 4 Days) of the same compound?
The GI50 was 1.76 nM.

And the GI50 (BT-549; 144 h, 6 Days)?
Its GI50 is 1.2 nM.

And the GI50 (BT-549; 192 h, 8 Days)?
Its GI50 is 0.18 nM.

What about the GI50 (MDA-MB-231; MDA-MB-231, 144 h, 6 Days) of the same compound?
Its GI50 is 0.09 nM.

What about the GI50 (MDA-MB-231; MDA-MB-231, 192 h, 8 Days) of the same compound?
The GI50 was 0.01 nM.

What about the GI50 (NCI-H460; NCI-H460, 96 h, 4 Days) of the same compound?
Its GI50 is 0.25 nM.

What about the GI50 (NCI-H460; NCI-H460, 144 h, 6 Days) of the same compound?
The GI50 was 0.57 nM.

What about the GI50 (NCI-H460; NCI-H460, 192 h, 8 Days) of the same compound?
Its GI50 is 0.56 nM.

What about the GI50 (NCI-H23; NCI-H23, 96 h, 4 Days) of the same compound?
Its GI50 is 1 nM.

And the GI50 (NCI-H23; NCI-H23, 144 h, 6 Days)?
Its GI50 is 1.12 nM.

What about the GI50 (NCI-H23; NCI-H23, 192 h, 8 Days) of the same compound?
The GI50 was 0.18 nM.

What about the GI50 (NCI-H1395; Homo sapiens, NCI-H1395, 144 h, 6 Days, read-out: GI50) of the same compound?
The GI50 was 6.81 nM.

And the GI50 (NCI-H1395; Homo sapiens, NCI-H1395, 192 h, 8 Days, read-out: GI50)?
The GI50 was 5.27 nM.

And the GI50 (NCI-H1395; 4 Days)?
The GI50 was 4 Days: Resistant.

And the GI50 (NCI-H2887; Homo sapiens, NCI-H2887, 144 h, 6 Days, read-out: GI50)?
Its GI50 is 643 nM.

What about the GI50 (NCI-H2887; Homo sapiens, NCI-H2887, 192 h, 8 Days, read-out: GI50) of the same compound?
The GI50 was 6.16 nM.

And the GI50 (NCI-H2887; 4 Days)?
Its GI50 is 4 Days: Resistant.

And the GI50 (Hep-G2; HepG2, 96 h, 4 Days)?
Its GI50 is 2.82 nM.

And the GI50 (Hep-G2; HepG2, 144 h, 6 Days)?
Its GI50 is 0.47 nM.

What about the GI50 (Hep-G2; HepG2, 192 h, 8 Days) of the same compound?
Its GI50 is 0.63 nM.

And the GI50 (SK-HEP-1; SK-HEP1, 96 h, 4 Days)?
Its GI50 is 5.6 nM.

And the GI50 (SK-HEP-1; SK-HEP1, 144 h, 6 Days)?
The GI50 was 2.85 nM.

And the GI50 (SK-HEP-1; SK-HEP1, 192 h, 8 Days)?
Its GI50 is 0.45 nM.

And the “formation of a bipolar spindle” value [1]?
Its value is “the bipolar spindle does not form”.

And the IC50 (ptx10 cells)?
Its IC50 is > 100 nM.

And the IC50 (ptx22 cells)?
Its IC50 is > 100 nM.

Source: patent US20040235939A1, “Synthesis of peloruside a and analogs thereof for use as antitumor agents” (priority 2003, published 2004)
